Common to all, as to assay type: functional
For test [1], the species on record is Mus musculus. As to the kind of experiment: Percent tumor growth inhibition in mice.
The species entered for test [2] is Mus musculus. As to the kind of experiment: Survival (Long Term Cure) of tumor inoculated mice after 100 days.
The species entered for test [3] is Mus musculus. As to the kind of experiment: Log cell kill of tumor (indicating the tumor growth delay) in mice.
Test [4] has as its system Mus musculus. Nature of the test: The maximum tolerated total dose following i.v. administration in mice.
Test [5] relates to Mus musculus. Nature of the test: Maximum tolerated total dose (MTD) was determined after intravenous administration in mice.

Consider `CCN(CC)CCNc1ccc(CNS(C)(=O)=O)c2sc3ccc(OC)cc3c(=O)c12`, for which the T/C (usually the ratio of treated to control) in test [1] was determined as 0%. The molecule further returned an LTC in test [2] of 1. In test [3], this molecule showed an LCK of 6.5. Further, the MTD (usually the highest dose tested that stayed within the study's limit of toxicity) in test [4] amounted to 248 mg/kg.

Take `CCN(CC)CCNc1ccc(CO)c2sc3ccccc3c(=O)c12` [HYCANTHONE]: the T/C in test [1] is 4%. Further, the LTC in test [2] is given as 0. The same molecule yielded an LCK in test [3] of 3.4. In addition, the maximum tolerated dose (MTD) in test [4] came out at 290 mg/kg.

In turn, `CCN(CC)CCNc1ccc(CNC)c2sc3ccc(O)cc3c(=O)c12` showed a T/C in test [1] of 0%. This molecule gave an LTC in test [2] of 0. Moreover, the LCK in test [3] stood at 4.6. Further, the maximum tolerated dose (MTD) in test [4] was found to be 60 mg/kg.

The molecule `CCN(CC)CCNc1ccc(CNS(C)(=O)=O)c2sc3ccccc3c(=O)c12` came in with a T/C in test [1] of 0%. In test [2], this molecule came in with an LTC of 3. In test [3], this molecule gave an LCK of 2. The molecule also returned an MTD in test [5] of 124 mg/kg.

Take `CCN(CC)CCNc1ccc(CNC(=O)OC)c2sc3ccc(OC)cc3c(=O)c12`: in test [1], the T/C turned out to be 0%. In test [2], this molecule yielded an LTC of 5. The LCK in test [3] is recorded as over 4.5. For the same molecule, the MTD in test [4] amounted to 240 mg/kg.

Take `COc1cccc2c1C(=O)c1c(O)c3c(c(O)c1C2=O)C[C@@](O)(C(=O)CO)C[C@@H]3O[C@H]1C[C@H](N)[C@H](O)[C@H](C)O1` [DOXORUBICIN]: in test [1], the T/C was found to be 0%. Moreover, the LTC in test [2] worked out at 1. In addition, in test [3], the LCK came to 2.9. Also, the maximal tolerated dose (MTD) in test [4] was 18 mg/kg.

As to `CCN(CC)CCNc1ccc(CNC(C)=O)c2sc3ccccc3c(=O)c12`, in test [1], the T/C was found to be 0%. Also, the LTC in test [2] worked out at 3. In addition, the LCK in test [3] was found to be 2.7. In test [4], the MTD worked out at 540 mg/kg.

On to `CCN(CC)CCNc1ccc(CNC)c2sc3ccc(OC)cc3c(=O)c12`, for which the T/C in test [1] worked out at 0%. The same molecule displayed an LTC in test [2] of 1. The same molecule displayed an LCK in test [3] of 5.1. The same molecule registered a maximal tolerated dose (MTD) in test [4] of 880 mg/kg.

In test [1], `CCN(CC)CCNc1ccc(CN(C)C)c2sc3ccccc3c(=O)c12` displayed a T/C of 23%. Moreover, the LTC in test [2] was determined as 0. The molecule also had an LCK in test [3] of 0.9. In test [4], this molecule had a maximal tolerated dose (MTD) of 544 mg/kg.

`CCN(CC)CCNc1ccc(CNC)c2sc3ccccc3c(=O)c12` showed a T/C in test [1] of 0%. Further, the LTC in test [2] was found to be 1. The molecule also showed an LCK in test [3] of 3.1. In addition, in test [4], the MTD came out at 800 mg/kg.

In test [1], `CCN(CC)CCNc1ccc(CN(C)S(C)(=O)=O)c2sc3ccccc3c(=O)c12` yielded a T/C of 0%. In addition, in test [2], the LTC turned out to be 1. For the same molecule, in test [3], the LCK came to 2.5. In test [4], this molecule gave an MTD of 304 mg/kg.

For `CCN(CC)CCNc1ccc(CNC(=O)OC)c2sc3ccccc3c(=O)c12`, the T/C in test [1] turned out to be 0%. Further, in test [2], the LTC came to 2. The molecule also had an LCK in test [3] of 8.8. This molecule also showed an MTD in test [4] of 248 mg/kg.

Consider `CCN(CC)CCNc1ccc(CNC(=O)c2ccccc2)c2sc3ccccc3c(=O)c12`, for which the T/C in test [1] came out at 26%. In test [2], this molecule displayed an LTC of 1. The molecule further returned an LCK in test [3] of 0.5. Also, the MTD in test [4] worked out at 252 mg/kg.

Take `CCN(CC)CCNc1ccc(CNC(=O)C(F)(F)F)c2sc3ccccc3c(=O)c12`: the T/C in test [1] is on record as 21%. The LTC in test [2] is reported as 0. Also, the LCK in test [3] turned out to be 1.5. In test [4], this molecule registered an MTD of 1171 mg/kg.

In test [1], `CCN(CC)CCNc1ccc(CN)c2sc3ccccc3c(=O)c12` yielded a T/C of 0%. This molecule also registered an LTC in test [2] of 4. In test [3], this molecule returned an LCK of over 4. Also, the MTD in test [4] was 270 mg/kg.

In test [1], `CCN(CC)CCNc1ccc(CNS(C)(=O)=O)c2sc3ccc(O)cc3c(=O)c12` showed a T/C of 11%. The LTC in test [2] is given as 0. Also, the LCK in test [3] is on record as 3.7. This molecule gave a maximum tolerated dose (MTD) in test [4] of 47 mg/kg.

As for `CCN(CC)CCNc1ccc(CNC=O)c2sc3ccccc3c(=O)c12`, the T/C in test [1] came to 0%. The LTC in test [2] is 1. In test [3], the LCK is 3. In test [4], this molecule displayed an MTD of 576 mg/kg.

As to `CCOP(=O)(NCc1ccc(NCCN(CC)CC)c2c(=O)c3ccccc3sc12)OCC`, in test [1], the T/C was determined as 36%. In addition, the LTC in test [2] came to 0. This molecule registered an LCK in test [3] of under 0.5. Moreover, the MTD in test [4] came out at 1298 mg/kg.

The molecule `CCN(CC)CCNc1ccc(CNS(=O)(=O)c2ccccc2)c2sc3ccccc3c(=O)c12` returned a T/C in test [1] of 0%. The molecule also returned an LTC in test [2] of 1. Moreover, in test [3], the LCK is 2.9. The same molecule yielded an MTD in test [4] of 840 mg/kg.

The values are drawn from ChEMBL document CHEMBL1127252, “Anti-solid tumor efficacy and preparation of N-[[1-[[2-(diethylamino)ethyl]amino]-9-oxo-9H-thioxanthen-4-yl]methyl]methanesulfonamide (win 33377) and related derivatives” (1994).
